Key:
Experiment in all cases: BIO3-BIO1 mutant enzyme activity in the presence of herbicide, percentage inhibition (fluorometric DAPA assay)
Assay type in all cases: biochemical
Details in all cases: read-out: percentage inhibition
[1] = molecular target: T1, Arabidopsis thaliana BIO3-BIO1 (BioDA) mutants (Arabidopsis thaliana, UniProt B0F481, S509Y)
T1 construct: with the predicted N-terminal mitochondrial transit peptide removed; 6xHis-tag (N); thrombin cleavage site (N); made in house; host or cells: E. coli BL21 (DE3) bioA
T1 sequence (B0F481 23-833 S509Y): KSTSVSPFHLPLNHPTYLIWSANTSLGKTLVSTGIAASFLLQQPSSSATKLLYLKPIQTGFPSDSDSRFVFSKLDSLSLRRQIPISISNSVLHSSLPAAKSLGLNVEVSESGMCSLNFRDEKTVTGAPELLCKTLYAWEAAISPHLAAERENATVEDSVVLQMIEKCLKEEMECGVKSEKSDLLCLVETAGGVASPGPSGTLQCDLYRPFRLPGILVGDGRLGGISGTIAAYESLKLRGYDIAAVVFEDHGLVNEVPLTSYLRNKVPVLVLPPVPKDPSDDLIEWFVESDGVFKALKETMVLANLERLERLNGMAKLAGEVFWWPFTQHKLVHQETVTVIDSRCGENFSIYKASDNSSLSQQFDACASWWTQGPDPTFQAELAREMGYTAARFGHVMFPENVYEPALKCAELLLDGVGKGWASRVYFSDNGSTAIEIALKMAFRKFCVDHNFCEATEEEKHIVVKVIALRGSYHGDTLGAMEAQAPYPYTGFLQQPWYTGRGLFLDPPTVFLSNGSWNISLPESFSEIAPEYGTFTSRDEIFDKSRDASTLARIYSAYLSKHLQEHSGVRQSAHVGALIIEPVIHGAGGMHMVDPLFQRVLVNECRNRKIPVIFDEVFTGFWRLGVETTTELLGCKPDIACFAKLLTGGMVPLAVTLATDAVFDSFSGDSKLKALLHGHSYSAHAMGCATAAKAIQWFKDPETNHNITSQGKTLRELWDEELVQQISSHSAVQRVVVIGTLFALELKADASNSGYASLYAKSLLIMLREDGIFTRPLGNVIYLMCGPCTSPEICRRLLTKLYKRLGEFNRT
Summary of the method: (§1)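 Percentage inhibition compares activity at one of three herbicide concentrations against DMSO, from o-phthalaldehyde-derivatised DAPA fluorescence (ex 410, em 470 nm). Purified N-His BIO3-BIO1 variants (50 nM, E. coli-expressed) saw herbicide 10 min at 20 °C in pH 8.6 EPPS buffer, then 20 μM KAPA plus 100 μM spermidine for 75 min at 20 °C.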

[2] = molecular target: T2, Arabidopsis thaliana BIO3-BIO1 (BioDA) mutants (Arabidopsis thaliana, UniProt B0F481, G608A)
T2 construct: with the predicted N-terminal mitochondrial transit peptide removed; 6xHis-tag (N); thrombin cleavage site (N); made in house; host or cells: E. coli BL21 (DE3) bioA
T2 sequence (B0F481 23-833 G608A): as the sequence (B0F481 23-833 S509Y) above, with Y487S, G586A counted along it
Summary of the method: as §1

[3] = molecular target: T3, Arabidopsis thaliana BIO3-BIO1 (BioDA) mutants (Arabidopsis thaliana, UniProt B0F481, P510L)
T3 construct: with the predicted N-terminal mitochondrial transit peptide removed; 6xHis-tag (N); thrombin cleavage site (N); made in house; host or cells: E. coli BL21 (DE3) bioA
T3 sequence (B0F481 23-833 P510L): as the sequence (B0F481 23-833 S509Y) above, with Y487S, P488L counted along it
Summary of the method: as §1

[4] = molecular target: T4, Arabidopsis thaliana BIO3-BIO1 (BioDA) mutants (Arabidopsis thaliana, UniProt B0F481, S509L)
T4 construct: with the predicted N-terminal mitochondrial transit peptide removed; 6xHis-tag (N); thrombin cleavage site (N); made in house; host or cells: E. coli BL21 (DE3) bioA
T4 sequence (B0F481 23-833 S509L): as the sequence (B0F481 23-833 S509Y) above, with Y487L counted along it
Summary of the method: as §1

[5] = molecular target: T5, Arabidopsis thaliana BIO3-BIO1 (BioDA) mutants (Arabidopsis thaliana, UniProt B0F481, W392D)
T5 construct: with the predicted N-terminal mitochondrial transit peptide removed; 6xHis-tag (N); thrombin cleavage site (N); made in house; host or cells: E. coli BL21 (DE3) bioA
T5 sequence (B0F481 23-833 W392D): as the sequence (B0F481 23-833 S509Y) above, with W370D, Y487S counted along it
Summary of the method: as §1

[6] = molecular target: T6, Arabidopsis thaliana BIO3-BIO1 (BioDA) mutants (Arabidopsis thaliana, UniProt B0F481, A609R)
T6 construct: with the predicted N-terminal mitochondrial transit peptide removed; 6xHis-tag (N); thrombin cleavage site (N); made in house; host or cells: E. coli BL21 (DE3) bioA
T6 sequence (B0F481 23-833 A609R): as the sequence (B0F481 23-833 S509Y) above, with Y487S, A587R counted along it
Summary of the method: as §1

[7] = molecular target: T7, Arabidopsis thaliana BIO3-BIO1 (BioDA) mutants (Arabidopsis thaliana, UniProt B0F481, G513P)
T7 construct: with the predicted N-terminal mitochondrial transit peptide removed; 6xHis-tag (N); thrombin cleavage site (N); made in house; host or cells: E. coli BL21 (DE3) bioA
T7 sequence (B0F481 23-833 G513P): as the sequence (B0F481 23-833 S509Y) above, with Y487S, G491P counted along it
Summary of the method: as §1

[8] = molecular target: T8, Arabidopsis thaliana BIO3-BIO1 (BioDA) mutants (Arabidopsis thaliana, UniProt B0F481, Y511Q)
T8 construct: with the predicted N-terminal mitochondrial transit peptide removed; 6xHis-tag (N); thrombin cleavage site (N); made in house; host or cells: E. coli BL21 (DE3) bioA
T8 sequence (B0F481 23-833 Y511Q): as the sequence (B0F481 23-833 S509Y) above, with Y487S, Y489Q counted along it
Summary of the method: as §1

[9] = molecular target: T9, Arabidopsis thaliana BIO3-BIO1 (BioDA) mutants (Arabidopsis thaliana, UniProt B0F481, A609F)
T9 construct: with the predicted N-terminal mitochondrial transit peptide removed; 6xHis-tag (N); thrombin cleavage site (N); made in house; host or cells: E. coli BL21 (DE3) bioA
T9 sequence (B0F481 23-833 A609F): as the sequence (B0F481 23-833 S509Y) above, with Y487S, A587F counted along it
Summary of the method: as §1

[10] = molecular target: T10, Arabidopsis thaliana BIO3-BIO1 (BioDA) mutants (Arabidopsis thaliana, UniProt B0F481, F348I)
T10 construct: with the predicted N-terminal mitochondrial transit peptide removed; 6xHis-tag (N); thrombin cleavage site (N); made in house; host or cells: E. coli BL21 (DE3) bioA
T10 sequence (B0F481 23-833 F348I): as the sequence (B0F481 23-833 S509Y) above, with F326I, Y487S counted along it
Summary of the method: as §1

[11] = molecular target: T11, Arabidopsis thaliana BIO3-BIO1 (BioDA) mutants (Arabidopsis thaliana, UniProt B0F481, P510A)
T11 construct: with the predicted N-terminal mitochondrial transit peptide removed; 6xHis-tag (N); thrombin cleavage site (N); made in house; host or cells: E. coli BL21 (DE3) bioA
T11 sequence (B0F481 23-833 P510A): as the sequence (B0F481 23-833 S509Y) above, with Y487S, P488A counted along it
Summary of the method: as §1

[12] = molecular target: T12, Arabidopsis thaliana BIO3-BIO1 (BioDA) mutants (Arabidopsis thaliana, UniProt B0F481, V354L)
T12 construct: with the predicted N-terminal mitochondrial transit peptide removed; 6xHis-tag (N); thrombin cleavage site (N); made in house; host or cells: E. coli BL21 (DE3) bioA
T12 sequence (B0F481 23-833 V354L): as the sequence (B0F481 23-833 S509Y) above, with V332L, Y487S counted along it
Summary of the method: as §1

CCn1c(-c2ccc(Cl)c(Cl)c2)c(C(=O)O)c(=O)c2cc(F)ccc21 [Compound M, 2-(3,4-dichlorophenyl)-1-ethyl-6-fluoro-4-oxo-quinoline-3-carboxylic acid]
inhibition at 0.2 µM [1]: 28%
inhibition at 1 µM [1]: 58%
inhibition at 5 µM [1]: 85%
inhibition at 0.2 µM [2]: 12%
inhibition at 1 µM [2]: 38%
inhibition at 5 µM [2]: 74%
inhibition at 0.2 µM [3]: 54%
inhibition at 1 µM [3]: 77%
inhibition at 5 µM [3]: 94%
inhibition at 0.2 µM [4]: 19%
inhibition at 1 µM [4]: 68%
inhibition at 5 µM [4]: 94%
inhibition at 0.2 µM [5]: 14%
inhibition at 1 µM [5]: 37%
inhibition at 5 µM [5]: 81%
inhibition at 0.2 µM [6]: 52%
inhibition at 1 µM [6]: 53%
inhibition at 5 µM [6]: 88%
inhibition at 0.2 µM [7]: 52%
inhibition at 1 µM [7]: 83%
inhibition at 5 µM [7]: 97%
inhibition at 0.2 µM [8]: 54%
inhibition at 1 µM [8]: 87%
inhibition at 5 µM [8]: 95%
inhibition at 0.2 µM [9]: 19%
inhibition at 1 µM [9]: 26%
inhibition at 5 µM [9]: 66%
inhibition at 0.2 µM [10]: 0%
inhibition at 1 µM [10]: 6%
inhibition at 5 µM [10]: 25%
inhibition at 0.2 µM [11]: 0%
inhibition at 1 µM [11]: 14%
inhibition at 5 µM [11]: 51%
inhibition at 0.2 µM [12]: 4%
inhibition at 1 µM [12]: 43%
inhibition at 5 µM [12]: 78%

CCn1c(C)c(-c2ccc(F)cc2F)c(=O)c(C(=O)O)c1-c1ccc(Cl)c(Cl)c1 [Compound C, 2-(3,4-dichlorophenyl)-5-(2,4-difluorophenyl)-1-ethyl-6-methyl-4-oxo-pyridine-3-carboxylic acid]
inhibition at 0.2 µM [1]: 37%
inhibition at 1 µM [1]: 76%
inhibition at 5 µM [1]: 95%
inhibition at 0.2 µM [2]: 11%
inhibition at 1 µM [2]: 42%
inhibition at 5 µM [2]: 81%
inhibition at 0.2 µM [3]: 67%
inhibition at 1 µM [3]: 84%
inhibition at 5 µM [3]: 96%
inhibition at 0.2 µM [4]: 24%
inhibition at 1 µM [4]: 85%
inhibition at 5 µM [4]: 99%
inhibition at 0.2 µM [5]: 46%
inhibition at 1 µM [5]: 59%
inhibition at 5 µM [5]: 91%
inhibition at 0.2 µM [6]: 63%
inhibition at 1 µM [6]: 68%
inhibition at 5 µM [6]: 71%
inhibition at 0.2 µM [7]: 52%
inhibition at 1 µM [7]: 95%
inhibition at 5 µM [7]: 99%
inhibition at 0.2 µM [8]: 78%
inhibition at 1 µM [8]: 97%
inhibition at 5 µM [8]: 98%
inhibition at 0.2 µM [9]: 5%
inhibition at 1 µM [9]: 5%
inhibition at 5 µM [9]: 20%
inhibition at 0.2 µM [10]: 6%
inhibition at 1 µM [10]: 11%
inhibition at 5 µM [10]: 49%
inhibition at 0.2 µM [11]: 0%
inhibition at 1 µM [11]: 28%
inhibition at 5 µM [11]: 70%
inhibition at 0.2 µM [12]: 0%
inhibition at 1 µM [12]: 32%
inhibition at 5 µM [12]: 86%

CCOC(=O)c1nn(-c2ccc3c(c2)OC(F)(F)C(F)(F)O3)c2cccc(C(C)=O)c2c1=O [Compound A, ethyl 5-acetyl-4-oxo-1-(2,2,3,3-tetrafluoro-1,4-benzodioxin-6-yl)cinnoline-3-carboxylate]
inhibition at 1 µM [1]: 3%
inhibition at 1 µM [2]: 10%
inhibition at 1 µM [3]: 82%
inhibition at 1 µM [4]: 6%
inhibition at 1 µM [5]: 55%
inhibition at 1 µM [6]: 54%
inhibition at 1 µM [7]: 63%
inhibition at 1 µM [8]: 21%
inhibition at 1 µM [9]: 6%
inhibition at 1 µM [10]: 7%
inhibition at 1 µM [11]: 4%
inhibition at 1 µM [12]: 1%

CCn1c(Cn2ccc(C(F)(F)F)n2)cc(=O)c(C(=O)O)c1-c1ccc(Cl)c(Cl)c1 [Compound L, 2-(3,4-dichlorophenyl)-1-ethyl-4-oxo-6-[[3-(trifluoromethyl)pyrazol-1-yl]methyl]pyridine-3-carboxylic acid]
inhibition at 0.01 µM [2]: 6%
inhibition at 0.075 µM [2]: 17%
inhibition at 0.5 µM [2]: 68%
inhibition at 0.01 µM [3]: 35%
inhibition at 0.075 µM [3]: 88%
inhibition at 0.5 µM [3]: 97%
inhibition at 0.01 µM [6]: 0%
inhibition at 0.075 µM [6]: 51%
inhibition at 0.5 µM [6]: 65%
inhibition at 0.01 µM [7]: 5%
inhibition at 0.075 µM [7]: 46%
inhibition at 0.5 µM [7]: 86%
inhibition at 0.01 µM [9]: 10%
inhibition at 0.075 µM [9]: 0%
inhibition at 0.5 µM [9]: 16%
inhibition at 0.01 µM [10]: 1%
inhibition at 0.075 µM [10]: 3%
inhibition at 0.5 µM [10]: 14%
inhibition at 0.01 µM [11]: 0%
inhibition at 0.075 µM [11]: 0%
inhibition at 0.5 µM [11]: 63%
